Measured values: US7449480B2, “Small molecule inhibitors of HER2 expression” (Baylor College of Medicine, priority 2002, dated 2008)
“Also recorded” adds a separate entry of the source.

How the values were obtained:
Sur-2 = molecular target: T1, Sur-2 (Homo sapiens, UniProt Q9ULK4); experiment: Sur-2 interaction of biotin conjugate in HeLa cell nuclear extracts (Neutravidin affinity, western blot); assay type: binding; settings: 100 μM, 4° C., 24 hrs
T1 construct: HeLa cell nuclear extracts were prepared as described47 and incubated with a biotin conjugate of wrenchnolol (8); endogenous in cells; host or cells: HeLa cell nuclear extracts
T1 sequence (Q9ULK4 1-1368): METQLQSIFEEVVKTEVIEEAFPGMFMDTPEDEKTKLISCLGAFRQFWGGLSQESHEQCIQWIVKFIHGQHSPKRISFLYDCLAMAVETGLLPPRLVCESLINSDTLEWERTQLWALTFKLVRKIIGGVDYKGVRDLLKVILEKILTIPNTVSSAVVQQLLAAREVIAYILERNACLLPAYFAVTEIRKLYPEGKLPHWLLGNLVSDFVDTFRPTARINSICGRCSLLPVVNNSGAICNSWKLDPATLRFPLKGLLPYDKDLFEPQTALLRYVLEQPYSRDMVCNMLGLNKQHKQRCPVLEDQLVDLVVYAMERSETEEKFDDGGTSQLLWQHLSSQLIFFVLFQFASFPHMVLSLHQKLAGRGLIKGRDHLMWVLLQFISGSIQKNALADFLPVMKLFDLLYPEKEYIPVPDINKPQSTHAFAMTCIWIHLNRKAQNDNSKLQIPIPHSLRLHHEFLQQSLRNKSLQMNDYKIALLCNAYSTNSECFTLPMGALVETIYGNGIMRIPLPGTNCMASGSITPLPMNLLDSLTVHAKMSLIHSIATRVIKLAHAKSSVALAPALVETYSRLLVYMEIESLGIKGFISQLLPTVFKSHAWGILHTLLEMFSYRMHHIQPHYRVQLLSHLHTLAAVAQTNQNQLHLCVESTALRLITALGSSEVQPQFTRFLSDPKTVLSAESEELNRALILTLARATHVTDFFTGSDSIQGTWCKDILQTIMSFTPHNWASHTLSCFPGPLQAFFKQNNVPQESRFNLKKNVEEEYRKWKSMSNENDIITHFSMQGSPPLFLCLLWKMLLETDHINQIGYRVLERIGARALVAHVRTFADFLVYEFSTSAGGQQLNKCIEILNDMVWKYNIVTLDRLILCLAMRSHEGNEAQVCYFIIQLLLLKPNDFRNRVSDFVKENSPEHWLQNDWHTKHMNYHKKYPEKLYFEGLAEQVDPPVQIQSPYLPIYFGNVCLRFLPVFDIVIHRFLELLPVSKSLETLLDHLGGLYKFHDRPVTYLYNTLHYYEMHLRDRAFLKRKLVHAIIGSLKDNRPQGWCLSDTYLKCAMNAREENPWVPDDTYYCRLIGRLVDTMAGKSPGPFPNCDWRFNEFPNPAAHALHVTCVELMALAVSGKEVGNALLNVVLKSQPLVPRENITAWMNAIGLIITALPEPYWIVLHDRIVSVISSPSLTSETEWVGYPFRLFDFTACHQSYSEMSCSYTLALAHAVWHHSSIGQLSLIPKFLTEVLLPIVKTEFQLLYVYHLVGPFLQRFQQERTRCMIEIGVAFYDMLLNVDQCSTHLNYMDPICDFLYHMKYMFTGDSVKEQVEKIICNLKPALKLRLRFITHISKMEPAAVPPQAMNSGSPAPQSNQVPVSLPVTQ
Protocol: (§1) HeLa cell nuclear extracts were prepared as described47 and incubated with a biotin conjugate of wrenchnolol (8) (100 μM) at 4° C. for 24 hrs. The samples were incubated with Neutravidin affinity resin (Pierce) at 4° C. for 2 hrs and extensively washed with PBS buffer containing 0.5% Nonidet P-40. The bound proteins were then separated by SDS/PAGE and analyzed by western blots with an antibody against human Sur-2 or by silver-staining. A=Ao+0.5.e([9]o+(([9]o+[P]oKd)2−4[9]o[P]o)0.5)
To confirm the interaction of wrenchnolol with Sur-2 in a cellular context, a biotin conjugate of wrenchnolol (8) was synthesized (Scheme 1) and incubated with cell nuclear extracts. The bound proteins were purified through an avidin affinity column, separated on an SDS-PAGE gel, and analyzed by western blots with a Sur-2 antibody. […] One of the silver-stained bands matched the western-blotted band of Sur-2, while the identities of the other bands remained unknown. Sur-2 (also called DRIP130 or CRSP130) is a subunit of the human mediator complexes. The additional bands may include those of the other subunits copurified with Sur-2.

MCF-7 Her18 = experiment: Cell death in MCF7 cells stably transfected with the Her2 gene; assay type: cell-based, human; settings: ectopic Her2 on a heterologous promoter
From the text: In contrast to the Her2-overexpressing cells, MDA-MB-468, a breast cancer cell line with no detectable levels of Her2, was resistant to TAT-ESX129-145 (FIGS. 5A and 5B). […] The effects of TAT-ESX129-145 on an MCF7 cell line stably transfected with the Her2 gene were examined.

VP16 activation domain = experiment: Transcription reporter gene assay (GAL4 fusion, SEAP), VP16 activation domain; assay type: cell-based; settings: HEK293 cells, 20 μM, 10-hr incubation
Protocol: (§2) Mammalian expression vectors each encoding the activation domain of ESX, VP16, or NFκBp65 fused with the GAL4 DNA-binding domain were used. Each expression construct was co-transfected to HEK293Tag human kidney cells together with a reporter plasmid in which the production of secreted alkaline phosphatase (SEAP) is under control of an IL-2 promoter carrying five GAL4 binding sites. After a 24 hour incubation in the presence or absence of adamanolol, an aliquot of the culture was assayed for SEAP activity. The total amounts of transfected DNA were normalized.
(§3) mammalian expression vectors, each encoding the activation domain of ESX, VP16, or NF-κB p65 fused with the GAL4 DNA-binding domain (amino acids 1-94), were used. Each expression construct was co-transfected to HEK293Tag human kidney cells together with a reporter plasmid in which the production of secreted alkaline phosphatase (SEAP) is under control of an IL2 promoter carrying five GAL4 binding sites. After 10-hr incubation with wrenchnolol (20 μM), an aliquot of the culture was assayed for SEAP activity.

Her2 = Her2 protein expression by western blot of cell lysates; assay type: cell-based, human; settings: SK-BR3 cells, 7 μM, 24 hrs; alpha-tubulin not reduced
From the text: Sur-2 is a human homolog of […] elegans Sur-2, a protein of unknown function whose mutations suppress the phenotype of an activated ras mutation (Singh et al., 1995), and it has been linked to the transcription-activating function of the adenovirus E1A protein and the Elk-1 transcription factor. […] To test this, we designed a cell-permeable peptide that binds Sur-2 (referred to as TAT-ESX129-145). The design takes advantage of the binding affinity of ESX129-145 and the cell internalization property of the 11-aa peptide derived from the HIV TAT protein. We first examined whether TAT ESX129-145 reduces endogenous expression of the Her2 gene in three Her2-overexpressing breast cancer cell lines, SK-BR-3, MDA-MB-453, and […] (FIG. 4). Cells were incubated in the presence or absence of TAT-ESX129-145, and the protein levels of Her2 were examined by Western blot analyses of normalized amounts of cell lysates.
Her2-overexpressing SK-BR3 cells were treated by 7.3 μM of adamanolol for 24 hrs, and whole cell lysates were analyzed by western blots. […]
SK-BR3 cells were treated by 7 μM of wrenchnolol for 24 hrs, and whole cell lysates were analyzed by western blots. […]

ESX-Sur-2 interaction = molecular target: T2, ESX-Sur-2 interaction (Homo sapiens, UniProt Q9ULK4); experiment: Inhibition of the ESX-Sur-2 interaction in vitro (fluorescence of FITC-ESX129-145 with GST-Sur2352-625); assay type: binding
T2 construct: made in house
T2 sequence (Q9ULK4 352-625): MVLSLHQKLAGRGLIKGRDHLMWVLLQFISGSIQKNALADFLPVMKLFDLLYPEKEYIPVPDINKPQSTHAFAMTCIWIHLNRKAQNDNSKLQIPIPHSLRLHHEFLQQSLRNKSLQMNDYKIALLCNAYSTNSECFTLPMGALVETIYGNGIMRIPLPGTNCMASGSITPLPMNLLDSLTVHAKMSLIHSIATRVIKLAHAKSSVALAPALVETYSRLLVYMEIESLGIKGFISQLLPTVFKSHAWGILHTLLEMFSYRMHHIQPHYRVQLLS
Protocol: To monitor the ESX-DRIP130 interaction, we labeled ESX129-145 with fluorescein isothiocyanate (FITC; Pierce) at the Lys144 position and measured its fluorescence spectra upon adding the glutatathione-S′-transferase (GST) fusion of DRIP130352-625. ESX129-145 was synthesized by standard Fmoc chemistry (the NH2 terminus was capped by an acetyl group during the synthesis) and purified by HPLC. The peptide was then coupled with FITC at the Lys144 position in a conjugation buffer (100 mM carbonate-bicarbonate buffer, pH 9) in dark and purified by NAP-5 desalting column (Amersham). The labeled peptide was quantified by UV and visible absorbance.
GST-Sur-2352-625 was expressed and purified. Varied concentrations of the fusion protein were added to FITC-ESX129-145 (10 nM) in phosphate buffered saline containing 2% (v/v) ethanol, and the fluorescence spectra of FITC-ESX129-145 were measured by an ABI LS-50B Fluorescence Spectrometer (Ex: 490 nm). The dissociation constant of the interaction was estimated to be 12 μM through the emission perturbation at 522 nm.
To examine the effects of adamanolol on the interaction in vitro, the ethanol component of the binding buffer was replaced with an ethanolic solution of adamanolol. The fractions of FITC-ESX129-145 (10 nM) bound to 50 μM of GST-Sur-2352-625 were estimated by measuring fluorescence emission at 522 nm. ESX129-145 and pindolol were used as positive and negative controls, respectively.
In another series of derivatives (the R3 substituents in Table 1), the adamantane group of adamanolol was substituted (11a-d). […] The binding fractions were calculated on the basis of fluorescence spectra of FITC-ESX129-145 (152 nM) in presence of GST-Sur2352-625 (212 nM) and varied concentrations of each adamanolol derivative.

[1] = system: SK-BR3 breast cancer cells; experiment: Cell viability assay (WST-1) in SK-BR3 breast cancer cells; assay type: cell-based, human
Protocol: SK-BR3 breast cancer cells were plated on 96-well plates at density of 5×10^3 cells/well and maintained for 24 hrs. The cells were then incubated with varied concentrations of each compound for 48 hrs, followed by addition of Premix WST-1 Solution (Takara). Cell viability was estimated by measuring absorbance at 450 nm after 1 hr with a SPECTRAmax microplatereader.

Sur-2 (GST-Sur2352-625) = molecular target: T3, Sur-2 (GST-Sur2352-625) (Homo sapiens, UniProt Q9ULK4); experiment: Fluorescence perturbation of fluorescein conjugate 9 by GST-Sur2352-625; assay type: binding; settings: measured with fluorescein conjugate 9, emission at 522 nm
T3 construct: made in house
T3 sequence (Q9ULK4 352-625): T2 sequence (Q9ULK4 352-625)
Protocol: as §1
Where A and Ao are the values of fluorescence intensity of 9 in the presence or absence of GST-Sur2352-625, respectively, and .e is the differential fluorescence intensity of 1 μM of 9 in the presence of an infinite concentration of protein and in its absence. [9]o and [P]o are the total concentrations of 9 and protein added, respectively.
The fluorescein conjugate 9 also enabled evaluation of the Kd value of the interaction between wrenchnolol and Sur-2 in vitro. Shown in FIG. 22C are relative emission intensities of 9 at 522 nm (excitation: 490 nm) in the presence of varied concentrations of GST-Sur2352-625. When a GST fusion of Sur-2 protein (GST-Sur2352-625) was added to a solution of conjugate 9, the fluorescence intensity of 9 at 522 nm was decreased ([…]).

[2] = Solubility in neutral aqueous solution; assay type: physicochemical; settings: amino group of the handle protonated
Protocol: When the amino group of the handle was protonated, wrenchnolol (7b) and its aminopropyl version (7a) became soluble up to ˜1 mM in neutral aqueous solution. The high water solubility enabled NMR analysis of these molecules in a buffered aqueous solution, and their proton signals were completely assigned through a combination of NOESY, DQF-COSY, and HOHAHA data sets (Table S1).

ESX activation domain = experiment: Transcription reporter gene assay (GAL4 fusion, SEAP), ESX activation domain; assay type: cell-based, human; settings: HEK293 cells, 20 μM, 10-hr incubation
Protocol: as §2, §3

[3] = system: NF-κB p65 activation domain; experiment: Transcription reporter gene assay (GAL4 fusion, SEAP), NF-κB p65 activation domain; assay type: cell-based, human; settings: HEK293 cells, 20 μM, 10-hr incubation
Protocol: as §3

O=C(O)CCCC[C@@H]1SC[C@@H]2NC(=O)N[C@@H]21 [Compound 13]
retention of Sur-2 protein on the affinity column (Sur-2): no Sur-2 protein was detected

ESX129-145: 17-aa segment of the ESX activation domain (TSSSSDELSWIIELLEK; UniProt P78545 129-145, looked up, fragment)
peptide-mediated cell death in Her2-transfected MCF7 cells (MCF-7 Her18): resistant

Cc1ccc(S(=O)(=O)n2ccc3c(OCC(O)CN(CCCCCN)C(=O)N4CCC(C5CCN(C(=O)C67CC8CC(CC(C8)C6)C7)CC5)CC4)cccc32)cc1 (stereo not drawn) [Compound 7b, Wrenchnolol]
effect on the VP16 activation domain (VP16 activation domain): much milder effects | expression of Her2 protein (Her2): reduces; also recorded: inhibition of Her2 protein expression | IC50 (ESX-Sur-2 interaction; FITC-ESX129-145 (152 nM), GST-Sur2352-625 (212 nM)): 10 ± 1.5 µM | inhibition of the ESX-Sur-2 interaction in vitro (in words) (ESX-Sur-2 interaction; in vitro fluorescence assay): more strongly than adamanolol | IC50 ([1]; 48 hrs incubation, WST-1): 6.9 µM | ability to kill SK-BR3 cells (biological activity, in words) ([1]; compared with adamanolol): no less active than adamanolol | Kd of the wrenchnolol-Sur-2 interaction (Sur-2 (GST-Sur2352-625)): low μM range | solubility in neutral aqueous solution [2]: ~1000 µM | ability of the ESX activation domain to activate the reporter gene (ESX activation domain): impaired; also recorded: selectively impairs | effect on the NF-κB p65 activation domain [3]: much milder effects
